Measured values as given in ChEMBL document CHEMBL1201862, “PubChem BioAssay data set” (2004).
The source made the active and inactive calls.

Tests used:
Jurkat = assay: SAR Analysis of small molecule inhibitors of T-cell specific antigen receptor-induced NF-kB activation in a Jurkat cell line using a luminescence assay - Set 2. [Related pubchem assays (depositor defined):AID435003, AID435012, AID465]; format: functional, cell-based; details: Homo sapiens
Wee1-like protein kinase = Wee1-like protein kinase (Homo sapiens, UniProt P30291); assay: Dose Response Cell-based Assay for Inhibitors of Wee1 Degradation. [Related pubchem assays: 1410, 1321 ]; format: functional
Wee1-like protein kinase, sequence (P30291 whole entry, the tested form may be a part): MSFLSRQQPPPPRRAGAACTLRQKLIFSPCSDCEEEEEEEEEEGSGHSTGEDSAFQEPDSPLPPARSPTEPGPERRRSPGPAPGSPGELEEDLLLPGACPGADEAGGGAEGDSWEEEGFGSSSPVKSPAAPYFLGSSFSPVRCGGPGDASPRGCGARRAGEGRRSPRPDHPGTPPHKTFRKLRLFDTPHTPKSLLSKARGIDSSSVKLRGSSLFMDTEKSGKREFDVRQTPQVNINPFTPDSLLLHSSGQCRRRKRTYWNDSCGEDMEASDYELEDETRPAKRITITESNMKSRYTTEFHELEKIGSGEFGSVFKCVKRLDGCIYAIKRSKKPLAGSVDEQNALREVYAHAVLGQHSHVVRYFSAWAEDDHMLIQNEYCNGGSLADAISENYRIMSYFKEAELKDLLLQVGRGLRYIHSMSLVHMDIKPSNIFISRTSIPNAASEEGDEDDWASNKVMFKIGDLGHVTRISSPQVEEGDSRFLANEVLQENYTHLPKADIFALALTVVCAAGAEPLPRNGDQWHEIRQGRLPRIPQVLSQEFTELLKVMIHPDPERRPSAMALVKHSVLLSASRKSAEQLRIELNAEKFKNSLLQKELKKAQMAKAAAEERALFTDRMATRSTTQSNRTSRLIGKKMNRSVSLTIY

CHO = CHO cell viability loss, potency – luminescence, cytotoxicity control for TLR9-MyD88 binding inhibitor project, dose response (AID 588339); format: functional, cell-based, hamster; details: Cricetulus griseus;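 note: CHO cells stably coexpressing TLR9 and MyD88 fusions from primary screen; compound exposure lasted 48 hours before viability readout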
[1] = target: T1, Mannose-6-phosphate isomerase (Homo sapiens, UniProt P34949); assay: MPI inhibition at elevated mannose 6-phosphate – biochemical, fluorescence intensity, high mannose 6-phosphate, primary screen (AID 1220)
T1 sequence (P34949 whole entry): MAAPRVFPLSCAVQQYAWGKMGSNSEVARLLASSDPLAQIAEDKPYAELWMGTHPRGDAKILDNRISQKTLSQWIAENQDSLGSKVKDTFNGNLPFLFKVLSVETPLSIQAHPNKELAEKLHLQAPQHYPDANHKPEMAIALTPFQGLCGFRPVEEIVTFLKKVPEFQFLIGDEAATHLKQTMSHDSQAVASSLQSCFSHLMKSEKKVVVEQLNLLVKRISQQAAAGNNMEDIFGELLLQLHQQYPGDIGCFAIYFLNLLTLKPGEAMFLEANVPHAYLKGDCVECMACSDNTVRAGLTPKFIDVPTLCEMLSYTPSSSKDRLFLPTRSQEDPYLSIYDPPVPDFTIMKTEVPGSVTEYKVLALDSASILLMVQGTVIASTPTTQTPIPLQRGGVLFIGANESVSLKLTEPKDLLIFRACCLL

[2] = target: T2, Microphthalmia-associated transcription factor (Homo sapiens, UniProt O75030); assay: reducers of TRPM1 reporter luminescence, concentration series – cell-based, SK-MEL-5, cherry-picked, set 3, MITF inhibitor project, dose response (AID 493073); format: functional;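 note: SK-MEL-5 melanoma cells with luciferase driven by the MITF target TRPM1 promoter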
T2 sequence (O75030 whole entry): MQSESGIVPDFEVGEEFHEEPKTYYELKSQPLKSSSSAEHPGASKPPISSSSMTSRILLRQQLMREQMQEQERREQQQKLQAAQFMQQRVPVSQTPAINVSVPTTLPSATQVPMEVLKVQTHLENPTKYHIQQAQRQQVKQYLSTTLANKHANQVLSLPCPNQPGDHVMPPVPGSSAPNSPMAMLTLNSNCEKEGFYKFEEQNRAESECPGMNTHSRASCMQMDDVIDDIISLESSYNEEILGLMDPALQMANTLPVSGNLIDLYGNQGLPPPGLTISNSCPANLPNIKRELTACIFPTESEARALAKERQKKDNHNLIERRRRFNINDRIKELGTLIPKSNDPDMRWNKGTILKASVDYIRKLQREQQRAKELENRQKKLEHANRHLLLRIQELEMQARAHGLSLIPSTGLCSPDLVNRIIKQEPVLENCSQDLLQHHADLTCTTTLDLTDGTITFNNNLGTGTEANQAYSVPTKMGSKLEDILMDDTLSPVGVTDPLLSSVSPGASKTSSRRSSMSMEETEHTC

A-375 = assay: proliferation inhibition in MITF-low A375 cells – cell-based, cherry-pick samples, set 2, counter-screen for MITF modulator project, dose response (AID 540335); format: functional; details: Homo sapiens

## CCCC(=O)NC(c1ccc(C(C)C)cc1)c1ccc2cccnc2c1O (stereo unspecified)
Jurkat
  IC50: 2.58 µM (active)

## O=[N+]([O-])c1ccc(Sc2cccc[n+]2[O-])c2nonc12
Wee1-like protein kinase
  EC50: > 1.84 µM (active)
CHO
  IC50: 0.448 µM (active)

## CC1(C)Cc2ccccc2C2=NNC(=O)C2=N1
[1]
  IC50: 14.1 µM (active)
[2]
  AC50: 3.62 µM (active)
A-375
  AC50: 35.3 µM (active)
